According to US7091040B1, “P450/acetaminophen genetically directed enzyme prodrug therapy (GDEPT)” (Innovata PLC, priority 1999, dated 2006):

Experiments:
[1] = Viability of V79 MZ cells, alone or co-cultured with H1A2 MZ cells (bystander effect), with acetaminophen, trypan blue exclusion; type: cell-based, Chinese hamster; conditions: Chinese hamster; for viability at 4 mM: 4 mM acetaminophen 6 h, then 24 h in culture medium; for viability at 0 h, 4 mM / viability at 6 h, 4 mM: 4 mM acetaminophen in PBS
Description: (§1) Table 1 represents the bystander effect on viability produced by incubating H1A2 MZ cells (stably transfected with human CYP1A2) with various cell-lines in the presence of acetaminophen. Tumour cells or V79 MZ cells (non transfected, parental cells) were co-cultured overnight with various mixtures of H1A2 MZ cells (as indicated in the Table), […] the cells were then washed once with PBS and maintained for either 24 or 48 h in culture medium appropriate to each cell type, as detailed in the Methods section. At 0, 6, 24 or 48 h the cells were washed in PBS and viability of the mixed cell population determined by trypan blue exclusion. The data shown are mean values±SEM of 4 separate determinations. Statistical significance was determined at each time point by comparing viability measurements in the mixed cell populations with both the viability determined at 0 h and in the absence of H1A2 MZ cells in the mixture 2×2 contingency tables using the 2-tailed Chi-squared test with Yate's correction. Viability was determined in a total of 1500 cells at each time point. Levels of significance are indicated as **p<0.001; ***p<0.0001;
(§2) FIG. 4 represents the bystander effect on viability produced by incubating stably transfected, acetaminophen-activating H1A2 MZ cells with non-transfected parental V79 MZ cells. […] The cells were then washed in PBS and the viability of the mixed cell population determined by trypan blue exclusion. The cultures comprised V79 MZ cells only (open squares), and V79 MZ cells mixed with 5% (solid squares), 10% (open triangles), 25% (open circles) and 50% (solid circles) H1A2 MZ cells. In addition, the viability of H1A2 MZ cells in the presence (crosses) and absence (solid triangles) of acetaminophen is shown.

V79 MZ cells = assay: as above; type: cell-based, Chinese hamster
Description: as §1, §2

[2] = Bystander effect on viability of MDA-MB-361 cells co-cultured with H1A2 MZ cells in the presence of acetaminophen, trypan blue exclusion; type: cell-based, human; conditions: human; for viability at 4 mM: 4 mM acetaminophen 6 h; for viability at 0 h, 4 mM / viability at 6 h, 4 mM: 4 mM acetaminophen in PBS
Description: (§3) Tumour cells or V79 MZ cells (non transfected, parental cells) were co-cultured overnight with various mixtures of H1A2 MZ cells (as indicated in the Table), washed with PBS and incubated with 4 mM acetaminophen in PBS for 6 h at 37° C. the cells were then washed once with PBS and maintained for either 24 or 48 h in culture medium appropriate to each cell type, as detailed in the Methods section. At 0, 6, 24 or 48 h the cells were washed in PBS and viability of the mixed cell population determined by trypan blue exclusion. The data shown are mean values±SEM of 4 separate determinations. Statistical significance was determined at each time point by comparing viability measurements in the mixed cell populations with both the viability determined at 0 h and in the absence of H1A2 MZ cells in the mixture 2×2 contingency tables using the 2-tailed Chi-squared test with Yate's correction. Viability was determined in a total of 1500 cells at each time point. Levels of significance are indicated as **p<0.001; ***p<0.0001;
(§4) For cell viability experiments 200,000 cells per well were plated on 12 well plates (Beckton-Dickenson, Oxford, UK), using the medium and conditions required by the tumour cell line and allowed to adhere overnight. After this the cells were washed with PBS before the addition of acetaminophen in 0.1 ml PBS (concentrations of 0.1–20 mM acetaminophen were dissolved in PBS by sonication) and then maintained at 37° C. At the appropriate time points, cells were removed from the plates by trypsinisation and collected by centrifugation. Cell viability was measured as ability to exclude trypan blue. Cells were counted at ×100 magnification using an Improved Neubauer haemocytometer; all cell counts are the mean of duplicate determinations of five fields from duplicate experiments.
(§5) V79 MZ Chinese hamster cells were maintained in Dulbecco-Vogt's modified Eagle's Medium (DMEM) supplemented with 10% foetal calf serum 9FCS), 2 mM L-glutamine, penicillin (100 U/ml and streptomycin (100 μg/ml) (all tissue culture reagents were obtained from Gibco BRL, Paisley, UK). H1A2 MZ cells, which are V79 MZ cells transfected with the human CYP1A2 gene, were also maintained in supplemented DMEM with the addition of geneticin at a concentration of 4 mg/ml. SK-OV-3 cells were grown in DMEM supplemented with 15% FCS and 2 mM L-glutamine, without the addition of antibiotics. RPMI-1640 medium with 10% FCS, 2 mM L-glutamine, penicillin (100 U/ml) and streptomycin ([…]) was required by the HCT116 cells. These cell lines were maintained at 37° C. with 100% humidity and 5% CO2. […] At confluence cells were removed from tissue culture flasks by inubation with trypsin-EDTA for 5 min, diluted 1:3–1:6 in fresh medium and seeded onto fresh flasks. The tumour cell lines were obtained from the European Collection of Cell Cultures.

SK-OV-3 cells = assay: Bystander effect on viability of SK-OV-3 cells co-cultured with H1A2 MZ cells in the presence of acetaminophen, trypan blue exclusion; type: cell-based, human; conditions: for viability at 4000 µM: Homo sapiens
Description: as §3, §4, §5

[3] = V79 MZ cells + 5% H1A2 MZ cells
[4] = V79 MZ cells + 10% H1A2 MZ cells
[5] = V79 MZ cells + 25% H1A2 MZ cells
[6] = V79 MZ cells + 50% H1A2 MZ cells
[7] = MDA-MB-361 cells + 10% H1A2 MZ cells
[8] = MDA-MB-361 cells + 25% H1A2 MZ cells
[9] = MDA-MB-361 cells + 50% H1A2 MZ cells

For CC(=O)Nc1ccc(O)cc1 [acetaminophen], which viability at 4 mM [1, 3] is on record?
The viability at 4 mM was 0%.

What about the viability at 0 h, 4 mM [1, 3] of the same compound?
The viability at 0 h, 4 mM was 98 ± 1%.

What about the viability at 6 h, 4 mM [1, 3] of the same compound?
Its viability at 6 h, 4 mM is 52%.

And the viability at 4 mM [1, 4]?
The viability at 4 mM was 0%.

What about the viability at 0 h, 4 mM [1, 4] of the same compound?
The viability at 0 h, 4 mM was 98 ± 1%.

What about the viability at 6 h, 4 mM [1, 4] of the same compound?
The viability at 6 h, 4 mM was 39 ± 6%.

What about the viability at 4 mM [1, 5] of the same compound?
Its viability at 4 mM is 0%.

What about the viability at 0 h, 4 mM [1, 5] of the same compound?
The viability at 0 h, 4 mM was 97 ± 2%.

And the viability at 6 h, 4 mM [1, 5]?
The viability at 6 h, 4 mM was 20 ± 4%.

And the viability at 4 mM [1, 6]?
Its viability at 4 mM is 0%.

And the viability at 0 h, 4 mM [1, 6]?
Its viability at 0 h, 4 mM is 96 ± 3%.

And the viability at 6 h, 4 mM [1, 6]?
The viability at 6 h, 4 mM was 15 ± 7%.

And the viability at 4 mM ([1]; V79 MZ cells, 0% H1A2 MZ cells)?
Its viability at 4 mM is 98 ± 1%.

And the viability at 0 h, 4 mM ([1]; V79 MZ cells, 0% H1A2 MZ cells)?
The viability at 0 h, 4 mM was 99 ± 1%.

What about the viability at 6 h, 4 mM ([1]; V79 MZ cells, 0% H1A2 MZ cells) of the same compound?
Its viability at 6 h, 4 mM is 94 ± 7%.

And the “Viability (%)” value (V79 MZ cells; V79 MZ cells + 5% H1A2 MZ cells, 4 mM acetaminophen 6 h, then 24 h in culture medium)?
The value was “zero”.

And the “Viability (%)” value (V79 MZ cells; V79 MZ cells, 0% H1A2 MZ cells, 4 mM acetaminophen in PBS, 6 h)?
The value was “no decline in cell viability”.

And the cell viability (V79 MZ cells; V79 MZ cells, which lack CYP1A2, acetaminophen 0.1–20 mM, 6 h)?
The cell viability was “no loss of cell viability”.

What about the viability at 4 mM ([2]; MDA-MB-361 cells + 5% H1A2 MZ cells, then 24 h in culture medium) of the same compound?
Its viability at 4 mM is 84 ± 7%.

What about the viability at 4 mM ([2]; MDA-MB-361 cells + 5% H1A2 MZ cells, then 48 h in culture medium) of the same compound?
The viability at 4 mM was 92 ± 4%.

What about the viability at 4 mM ([2]; MDA-MB-361 cells + 10% H1A2 MZ cells, then 24 h in culture medium) of the same compound?
Its viability at 4 mM is 81 ± 9%.

What about the viability at 4 mM ([2]; MDA-MB-361 cells + 10% H1A2 MZ cells, then 48 h in culture medium) of the same compound?
The viability at 4 mM was 94 ± 7%.

What about the viability at 0 h, 4 mM [2, 7] of the same compound?
Its viability at 0 h, 4 mM is 96 ± 3%.

And the viability at 6 h, 4 mM [2, 7]?
The viability at 6 h, 4 mM was 74 ± 7%.

What about the viability at 4 mM ([2]; MDA-MB-361 cells + 25% H1A2 MZ cells, then 24 h in culture medium) of the same compound?
The viability at 4 mM was 78 ± 9%.

What about the viability at 4 mM ([2]; MDA-MB-361 cells + 25% H1A2 MZ cells, then 48 h in culture medium) of the same compound?
The viability at 4 mM was 91 ± 6%.

And the viability at 0 h, 4 mM [2, 8]?
The viability at 0 h, 4 mM was 97 ± 1%.

What about the viability at 6 h, 4 mM [2, 8] of the same compound?
The viability at 6 h, 4 mM was 70 ± 11%.

And the viability at 4 mM ([2]; MDA-MB-361 cells + 50% H1A2 MZ cells, then 48 h in culture medium)?
Its viability at 4 mM is 0%.

And the viability at 0 h, 4 mM [2, 9]?
Its viability at 0 h, 4 mM is 98 ± 3%.

And the viability at 6 h, 4 mM [2, 9]?
The viability at 6 h, 4 mM was 42 ± 4%.

And the viability at 4000 µM (SK-OV-3 cells; SK-OV-3, 0 h, SK-OV-3 cells + 5% H1A2 MZ cells, 4 mM acetaminophen in PBS, 0 h)?
Its viability at 4000 µM is 98 ± 1%.

And the viability at 4000 µM (SK-OV-3 cells; SK-OV-3, 0 h, SK-OV-3 cells + 10% H1A2 MZ cells, 4 mM acetaminophen in PBS, 0 h)?
Its viability at 4000 µM is 98 ± 1%.

What about the viability at 4000 µM (SK-OV-3 cells; SK-OV-3, 0 h, SK-OV-3 cells + 25% H1A2 MZ cells, 4 mM acetaminophen in PBS, 0 h) of the same compound?
Its viability at 4000 µM is 97 ± 1%.

And the viability at 4000 µM (SK-OV-3 cells; SK-OV-3, 0 h, SK-OV-3 cells + 50% H1A2 MZ cells, 4 mM acetaminophen in PBS, 0 h)?
The viability at 4000 µM was 98 ± 1%.

And the viability at 4000 µM (SK-OV-3 cells; SK-OV-3, 0 h, SK-OV-3 cells, 0% H1A2 MZ cells, 4 mM acetaminophen in PBS, 0 h)?
The viability at 4000 µM was 97 ± 1%.

And the viability at 4000 µM (SK-OV-3 cells; SK-OV-3, 6 h, SK-OV-3 cells + 5% H1A2 MZ cells, 4 mM acetaminophen in PBS, 6 h)?
Its viability at 4000 µM is 55 ± 2%.

And the viability at 4000 µM (SK-OV-3 cells; SK-OV-3, 6 h, SK-OV-3 cells + 10% H1A2 MZ cells, 4 mM acetaminophen in PBS, 6 h)?
Its viability at 4000 µM is 43 ± 7%.

What about the viability at 4000 µM (SK-OV-3 cells; SK-OV-3, 6 h, SK-OV-3 cells + 25% H1A2 MZ cells, 4 mM acetaminophen in PBS, 6 h) of the same compound?
Its viability at 4000 µM is 22 ± 11%.

And the viability at 4000 µM (SK-OV-3 cells; SK-OV-3, 6 h, SK-OV-3 cells + 50% H1A2 MZ cells, 4 mM acetaminophen in PBS, 6 h)?
Its viability at 4000 µM is 16 ± 9%.

What about the viability at 4000 µM (SK-OV-3 cells; SK-OV-3, 6 h, SK-OV-3 cells, 0% H1A2 MZ cells, 4 mM acetaminophen in PBS, 6 h) of the same compound?
The viability at 4000 µM was 98 ± 2%.

What about the viability at 4000 µM (SK-OV-3 cells; SK-OV-3, SK-OV-3 cells + 5% H1A2 MZ cells, 4 mM acetaminophen 6 h, then 24 h in culture medium) of the same compound?
Its viability at 4000 µM is 0%.

What about the viability at 4000 µM (SK-OV-3 cells; SK-OV-3, SK-OV-3 cells + 10% H1A2 MZ cells, 4 mM acetaminophen 6 h, then 24 h in culture medium) of the same compound?
The viability at 4000 µM was 0%.

What about the viability at 4000 µM (SK-OV-3 cells; SK-OV-3, SK-OV-3 cells + 25% H1A2 MZ cells, 4 mM acetaminophen 6 h, then 24 h in culture medium) of the same compound?
Its viability at 4000 µM is 0%.

What about the viability at 4000 µM (SK-OV-3 cells; SK-OV-3, SK-OV-3 cells + 50% H1A2 MZ cells, 4 mM acetaminophen 6 h, then 24 h in culture medium) of the same compound?
The viability at 4000 µM was 0%.

And the viability at 4000 µM (SK-OV-3 cells; SK-OV-3, SK-OV-3 cells, 0% H1A2 MZ cells, 4 mM acetaminophen 6 h, then 24 h in culture medium)?
Its viability at 4000 µM is 96 ± 3%.

What about the “Viability (%)” value (SK-OV-3 cells; SK-OV-3 cells + 5% H1A2 MZ cells, 4 mM acetaminophen 6 h, then 24 h in culture medium) of the same compound?
Its value is “zero”.

What about the “susceptibility to cytotoxicity produced by the activation of acetaminophen” value (SK-OV-3 cells; SK-OV-3 cells mixed with H1A2 MZ cells, 4 mM acetaminophen, 6 h) of the same compound?
The value was “highly sensitive”.
